Literature values, collected in PubChem BioAssay AID1259409 (Chemical Carcinogenesis Research Information System (CCRIS), 2018).

Tested on: rodent chemically induced tumor inhibition, incidence and multiplicity
Assay: CCRIS tumor inhibitor studies
Source text: The CCRIS database contains chemical records with carcinogenicity, mutagenicity, tumor promotion, and tumor inhibition test results. It was developed by the National Cancer Institute (NCI). Data are derived from studies cited in primary journals, current awareness tools, NCI reports, and other sources. Test results have been reviewed by experts in carcinogenesis and mutagenesis.
CCRIS provides historical information from the years 1985 - 2011. It is no longer updated.
This is an archive assay for CCRIS tumor inhibitor studies.

SMILES: C/C=C/S/C=C/C
- tumour outcome (control, treated, inhibition, significance) (Carcinogen: 7,12-DIMETHYLBENZ[A]ANTHRACENE, 57-97-6, Dose [Inhibitor]: 0, 1 MG IN 0.2 ML ACETONE APPLIED 30 MIN AFTER EACH MEZEREIN DOSE (STUDY DURATION: 20 WK), Route [Inhibitor]: DERMAL, Species: MOUSE, Strain/Sex: SENCAR/FEMALE, Target Tissue: Type of Lesion: SKIN: PAPILLOMA, Dose [Carcinogen]: 0.1 UMOL IN 0.2 ML ACETONE ONCE, Promoter: TPA, 16561-29-8, MEZEREIN, 37807-41-5, Promoter: TPA, 16561-29-8, MEZEREIN, 37807-41-5): 100%, 86%, 14%, p<0.005
- tumour outcome (control, treated, inhibition, significance) (Carcinogen: 7,12-DIMETHYLBENZ[A]ANTHRACENE, 57-97-6, Dose [Inhibitor]: 0, 1 MG IN 0.2 ML ACETONE APPLIED 30 MIN AFTER EACH TPA DOSE (STUDY DURATION: 20 WK), Route [Inhibitor]: DERMAL, Species: MOUSE, Strain/Sex: SENCAR/FEMALE, Target Tissue: Type of Lesion: SKIN: PAPILLOMA, Dose [Carcinogen]: 0.1 UMOL IN 0.2 ML ACETONE ONCE, Promoter: TPA, 16561-29-8, MEZEREIN, 37807-41-5, Promoter: TPA, 16561-29-8, MEZEREIN, 37807-41-5): 100%, 91%, 9%, p<0.005

SMILES: C[C@]12C[C@H](O)[C@H]3[C@@H](CCC4=CC(=O)CC[C@@]43C)[C@@H]1CC[C@@H]2C(=O)CO
- tumour outcome (control, treated, inhibition, significance) (Dose [Inhibitor]: 0, 1.5 MG 2/WK FOR 10 WK (STUDY DURATION: 65 WK), Route [Inhibitor]: INTRAMUSCULAR, Species: RAT, Strain/Sex: F344/MALE, Target Tissue: Type of Lesion: LIVER: HEPATOCELLULAR CARCINOMA, Dose [Carcinogen]: 100 UG 2/WK FOR 10 WK, Promoter: NONE USED): 12/13 (92%), 12/23 (52%), 43%, p<0.02

SMILES: C/C(=C\c1ccc(C(=O)O)cc1)c1cc2c(s1)CCCC2(C)C
- tumour outcome (control, treated, inhibition, significance) (Carcinogen: 7,12-DIMETHYLBENZ[A]ANTHRACENE, 57-97-6, Dose [Inhibitor]: 0.17 NMOL IN 0.2 ML ACETONE 1 HR PRIOR TO EACH PROMOTER DOSE FOR 12 WK (STUDY DURATION: 14 WK), Route [Inhibitor]: DERMAL, Species: MOUSE, Strain/Sex: SENCAR/FEMALE, Target Tissue: Type of Lesion: SKIN: PAPILLOMA, Dose [Carcinogen]: 200 NMOL IN 0.2 ML ACETONE ONCE, Promoter: 12-O-TETRADECANOYLPHORBOL-13-ACETATE, 16561-29-8): 100%, 100%, 0%, not calculated
- tumour outcome (control, treated, inhibition, significance) (Carcinogen: 7,12-DIMETHYLBENZ[A]ANTHRACENE, 57-97-6, Dose [Inhibitor]: 0.17 NMOL IN 0.2 ML ACETONE 1 HR PRIOR TO EACH PROMOTER DOSE FOR 20 WK (STUDY DURATION: 22 WK), Route [Inhibitor]: DERMAL, Species: MOUSE, Strain/Sex: CD-1/FEMALE, Target Tissue: Type of Lesion: SKIN: PAPILLOMA, Dose [Carcinogen]: 200 NMOL IN 0.2 ML ACETONE ONCE, Promoter: 12-O-TETRADECANOYLPHORBOL-13-ACETATE, 16561-29-8): 94%, 89%, 5%, not calculated
- tumour outcome (control, treated, inhibition, significance) (Carcinogen: 7,12-DIMETHYLBENZ[A]ANTHRACENE, 57-97-6, Dose [Inhibitor]: 1.7 NMOL IN 0.2 ML ACETONE 1 HR PRIOR TO EACH PROMOTER DOSE FOR 12 WK (STUDY DURATION: 14 WK), Route [Inhibitor]: DERMAL, Species: MOUSE, Strain/Sex: SENCAR/FEMALE, Target Tissue: Type of Lesion: SKIN: PAPILLOMA, Dose [Carcinogen]: 200 NMOL IN 0.2 ML ACETONE ONCE, Promoter: 12-O-TETRADECANOYLPHORBOL-13-ACETATE, 16561-29-8): 100%, 80%, 20%, not calculated
- tumour outcome (control, treated, inhibition, significance) (Carcinogen: 7,12-DIMETHYLBENZ[A]ANTHRACENE, 57-97-6, Dose [Inhibitor]: 1.7 NMOL IN 0.2 ML ACETONE 1 HR PRIOR TO EACH PROMOTER DOSE FOR 20 WK (STUDY DURATION: 22 WK), Route [Inhibitor]: DERMAL, Species: MOUSE, Strain/Sex: CD-1/FEMALE, Target Tissue: Type of Lesion: SKIN: PAPILLOMA, Dose [Carcinogen]: 200 NMOL IN 0.2 ML ACETONE ONCE, Promoter: 12-O-TETRADECANOYLPHORBOL-13-ACETATE, 16561-29-8): 94%, 52%, 45%, not calculated
- tumour outcome (control, treated, inhibition, significance) (Carcinogen: 7,12-DIMETHYLBENZ[A]ANTHRACENE, 57-97-6, Dose [Inhibitor]: 17 NMOL IN 0.2 ML ACETONE 1 HR PRIOR TO EACH PROMOTER DOSE FOR 12 WK (STUDY DURATION: 14 WK), Route [Inhibitor]: DERMAL, Species: MOUSE, Strain/Sex: SENCAR/FEMALE, Target Tissue: Type of Lesion: SKIN: PAPILLOMA, Dose [Carcinogen]: 200 NMOL IN 0.2 ML ACETONE ONCE, Promoter: 12-O-TETRADECANOYLPHORBOL-13-ACETATE, 16561-29-8): 100%, 3%, 97%, not calculated
- tumour outcome (control, treated, inhibition, significance) (Carcinogen: 7,12-DIMETHYLBENZ[A]ANTHRACENE, 57-97-6, Dose [Inhibitor]: 17 NMOL IN 0.2 ML ACETONE 1 HR PRIOR TO EACH PROMOTER DOSE FOR 20 WK (STUDY DURATION: 22 WK), Route [Inhibitor]: DERMAL, Species: MOUSE, Strain/Sex: CD-1/FEMALE, Target Tissue: Type of Lesion: SKIN: PAPILLOMA, Dose [Carcinogen]: 200 NMOL IN 0.2 ML ACETONE ONCE, Promoter: 12-O-TETRADECANOYLPHORBOL-13-ACETATE, 16561-29-8): 94%, 0%, 100%, not calculated

SMILES: CSC(=S)NCc1c[nH]c2ccccc12
- tumour outcome (control, treated, inhibition, significance) (Carcinogen: 7,12-DIMETHYLBENZ[A]ANTHRACENE, 57-97-6, Dose [Inhibitor]: 0, 0.5% IN 0.2 ML ACETONE APPLIED 1 HR PRIOR TO PROMOTER DOSE 2/WK FOR 12 WK (STUDY DURATION: 90 D), Route [Inhibitor]: DERMAL, Species: MOUSE, Strain/Sex: CD-1/MALE, Target Tissue: Type of Lesion: SKIN: TUMOR, Dose [Carcinogen]: 50 UG IN 0.2 ML ACETONE ONCE, Promoter: 12-O-TETRADECANOYLPHORBOL-13-ACETATE, 16561-29-8): 95%, 65%, 32%, not significant
- tumour outcome (control, treated, inhibition, significance) (Carcinogen: 7,12-DIMETHYLBENZ[A]ANTHRACENE, 57-97-6, Dose [Inhibitor]: 0, 1% IN 0.2 ML ACETONE APPLIED 1 HR PRIOR TO PROMOTER DOSE 2/WK FOR 12 WK (STUDY DURATION: 90 D), Route [Inhibitor]: DERMAL, Species: MOUSE, Strain/Sex: CD-1/MALE, Target Tissue: Type of Lesion: SKIN: TUMOR, Dose [Carcinogen]: 50 UG IN 0.2 ML ACETONE ONCE, Promoter: 12-O-TETRADECANOYLPHORBOL-13-ACETATE, 16561-29-8): 95%, 50%, 50%, p<0.03
- tumour outcome (control, treated, inhibition, significance) (Carcinogen: 7,12-DIMETHYLBENZ[A]ANTHRACENE, 57-97-6, Dose [Inhibitor]: 0, 1% IN 0.2 ML ACETONE APPLIED 1 HR PRIOR TO PROMOTER DOSE 2/WK FOR 12 WK BEGINNING 5 D PRIOR TO CARCINOGEN DOSE (STUDY, Route [Inhibitor]: DERMAL, Species: MOUSE, Strain/Sex: CD-1/MALE, Target Tissue: Type of Lesion: SKIN: TUMOR, Dose [Carcinogen]: 50 UG IN 0.2 ML ACETONE ONCE, Promoter: 12-O-TETRADECANOYLPHORBOL-13-ACETATE, 16561-29-8): 95%, 55%, 42%, p<0.03

SMILES: Nc1ncn[nH]1
- tumour outcome (control, treated, inhibition, significance) (Carcinogen: DIETHYLSTILBESTROL, 56-53-1, Dose [Inhibitor]: 0, 1500 PPM IN DRINKING WATER 47 D POST FIRST DOSE OF CARCINOGEN (STUDY DURATION: 6 MO), Route [Inhibitor]: ORAL, Species: RAT, Strain/Sex: WF/MALE, Target Tissue: Type of Lesion: LIVER: HEPATOCELLULAR CARCINOMA, Dose [Carcinogen]: 5 MG ONTO BACK 1/2 MO FOR 6 MO, Promoter: NONE USED): 1/9 (11%), 0/11 (0%), 100%, not calculated
- tumour outcome (control, treated, inhibition, significance) (Carcinogen: DIETHYLSTILBESTROL, 56-53-1, Dose [Inhibitor]: 0, 1500 PPM IN DRINKING WATER 47 D POST FIRST DOSE OF CARCINOGEN (STUDY DURATION: 6 MO), Route [Inhibitor]: ORAL, Species: RAT, Strain/Sex: WF/MALE, Target Tissue: Type of Lesion: PITUITARY: TUMOR, Dose [Carcinogen]: 5 MG ONTO BACK 1/2 MO FOR 6 MO, Promoter: NONE USED): 7/9 (78%), 8/11 (73%), 6%, not significant

SMILES: Oc1ccc(C2=Cc3ccc(O)cc3OC2)cc1
- tumour outcome (control, treated, inhibition, significance) (Carcinogen: 7,12-DIMETHYLBENZ[A]ANTHRACENE, 57-97-6, Dose [Inhibitor]: 0, 50 MG/KG IN DIET FOR 117 D (STUDY DURATION: 117 D), Route [Inhibitor]: ORAL, Species: RAT, Strain/Sex: SPRAGUE-DAWLEY/FEMALE, Target Tissue: Type of Lesion: MAMMARY GLAND: TUMOR, Dose [Carcinogen]: 15 MG IN SESAME OIL, ONCE, 7 D AFTER FIRST INHIBITOR DOSE): 15/16 (94.7%), 12/18 (65%), 31.4%, p< 0.05
- tumour outcome (control, treated, inhibition, significance) (Carcinogen: 7,12-DIMETHYLBENZ[A]ANTHRACENE, 57-97-6, Dose [Inhibitor]: 0, 75 MG/KG IN DIET FOR 117 D (STUDY DURATION: 117 D), Route [Inhibitor]: ORAL, Species: RAT, Strain/Sex: SPRAGUE-DAWLEY/FEMALE, Target Tissue: Type of Lesion: MAMMARY GLAND: TUMOR, Dose [Carcinogen]: 15 MG IN SESAME OIL, ONCE, 7 D AFTER FIRST INHIBITOR DOSE): 15/16 (94.7%), 12/17 (70%), 26.1%, p< 0.05

SMILES: C[C@]12CC[C@]3(C1)[C@H](CC2=O)C[C@@H](OC(=O)c1ccccc1)[C@H]1[C@](C)(C(=O)O)CCC[C@@]13C
- tumour outcome (control, treated, inhibition, significance) (Carcinogen: 7,12-DIMETHYLBENZ[A]ANTHRACENE, 57-97-6, Dose [Inhibitor]: 0, 162 NMOL 2/WK APPLIED SIMULTANEOUSLY WITH EACH PROMOTER DOSE FOR 18 WK (STUDY DURATION: 18 WK), Route [Inhibitor]: DERMAL, Species: MOUSE, Strain/Sex: ICR/FEMALE, Target Tissue: Type of Lesion: SKIN: TUMOR, Dose [Carcinogen]: 100 UG IN 100 µL ACETONE ONCE, Promoter: 12-O-TETRADECANOYLPHORBOL-13-ACETATE, 16561-29-8): 90%, 50%, 44%, not significant
